From patent EP2945947B1, “INHIBITING THE TRANSIENT RECEPTOR POTENTIAL A1 ION CHANNEL” (Merck Sharp & Dohme Corp., priority 2013, dated 2014)
Values after ≈ are worked out from the molar mass of the structure shown. Where two headings read alike, the source gives them in different places. Marks after values point to notes of the source that are not given here.

Key:
human TRPA1 = human TRPA1 (Homo sapiens, UniProt O75762); assay: Inhibition of the TRPA1 ion channel, whole cell patch configuration (Example 1); format: cell-based; conditions: current activation 10 µM AITC, read-out: Human TRPA1 IC50 Inward Current
human TRPA1, sequence (O75762 whole entry): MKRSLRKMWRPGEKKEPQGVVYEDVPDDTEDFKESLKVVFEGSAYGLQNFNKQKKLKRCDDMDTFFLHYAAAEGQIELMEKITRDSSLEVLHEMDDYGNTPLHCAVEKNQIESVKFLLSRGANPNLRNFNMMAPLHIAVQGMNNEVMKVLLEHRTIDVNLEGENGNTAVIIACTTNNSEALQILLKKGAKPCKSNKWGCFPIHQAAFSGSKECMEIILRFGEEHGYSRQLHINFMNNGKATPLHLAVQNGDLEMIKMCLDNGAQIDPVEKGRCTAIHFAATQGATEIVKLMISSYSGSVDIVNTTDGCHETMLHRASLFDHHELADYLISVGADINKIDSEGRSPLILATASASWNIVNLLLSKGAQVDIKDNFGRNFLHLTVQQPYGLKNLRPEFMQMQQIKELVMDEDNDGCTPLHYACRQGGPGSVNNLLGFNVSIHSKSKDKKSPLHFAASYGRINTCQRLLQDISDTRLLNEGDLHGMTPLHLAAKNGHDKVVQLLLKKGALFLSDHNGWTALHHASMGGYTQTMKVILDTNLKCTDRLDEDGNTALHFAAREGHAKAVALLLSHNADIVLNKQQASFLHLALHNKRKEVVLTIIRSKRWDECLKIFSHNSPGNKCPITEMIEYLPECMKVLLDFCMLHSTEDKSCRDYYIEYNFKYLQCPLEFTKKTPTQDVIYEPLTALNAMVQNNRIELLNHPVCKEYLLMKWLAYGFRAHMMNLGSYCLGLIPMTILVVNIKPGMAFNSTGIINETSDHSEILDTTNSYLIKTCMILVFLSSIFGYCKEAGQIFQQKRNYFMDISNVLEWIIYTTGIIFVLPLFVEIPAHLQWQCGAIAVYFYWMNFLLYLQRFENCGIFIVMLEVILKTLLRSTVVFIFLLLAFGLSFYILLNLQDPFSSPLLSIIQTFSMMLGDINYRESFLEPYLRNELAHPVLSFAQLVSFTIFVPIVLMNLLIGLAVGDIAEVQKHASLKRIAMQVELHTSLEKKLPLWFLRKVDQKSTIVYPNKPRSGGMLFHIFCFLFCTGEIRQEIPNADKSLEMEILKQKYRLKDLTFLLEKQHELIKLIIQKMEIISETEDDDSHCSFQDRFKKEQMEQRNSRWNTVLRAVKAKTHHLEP
Description: Compounds of Formula (Ia) inhibit the TRPA1 channel, as measured using the method of Example 1. […] Data for TRPA1 inhibition and for TRPA1 selectivity was obtained by this method for the indicated compounds of Formula (Ia), with the relevant data included in Tables 1a - f below. All currents were recorded in whole-cell configuration using EPC-9 and EPC-10 amplifiers and Patchmaster software (HEKA). […] The standard pipette solution consisted of 140mM CsAsp, 10 mM EGTA, 10 mM HEPES, 2.27 mM MgCl2, 1.91 mM CaCl2, 4 mM MgATP, and 0.1-0.3 mM Na2GTP, with pH adjusted to 7.2 with CsOH. In addition, a solution containing 145 mM CsCl, 10 mM HEPES, 10 mM EGTA and 1 mM MgCl2 (pH 7.2 adjusted with CsOH) can be used. The standard bath solution contained 150 mM NaCl, 10 mM HEPES, 10 mM glucose, 4.5 mM KCl, 1 mM EGTA, 3 mM MgCl2, with pH adjusted to 7.4 with NaOH. In some instances, 2 mM CaCl2 was added in place of EGTA and the concentration of MgCl2 was reduced to 1 mM.
Data were collected either by continuous recordings at -60 mV or by applying voltage ramps from a holding potential of 0 mV every 4 s. Continuous recordings were collected at 400 Hz and digitally filtered off-line at 10 Hz for presentation. Voltage ramps were applied from - 100 mV to 100 mV over the course of 400 ms, and data were collected at 10 kHz and filtered at 2.9 kHz. Inward and outward currents were analyzed from the ramps at -80 and 80 mV, respectively. Liquid junction potential correction was not used.
Solutions were switched using a gravity-fed continuous focal perfusion system. To achieve rapid temperature changes, two temperature control, and perfusion systems were employed simultaneously. For temperatures ≥ 22°C, a Warner Instruments bipolar temperature controller (TC-344B) and inline heater (SHM-8) were used. […] Temperatures were confirmed using a thermistor (Warner Instruments, TA-29), with temperatures at the recorded cell estimated to be within +/- 2°C of those reported.
The antagonist effects of compounds of Formula (Ia) against human TRPA1 ("hTRPA1") and for some compounds rat TRPA1 ("rTRPA1") in a whole cell patch configuration were evaluated using the in vitro assay described above. The current activation tested was 10 µM AITC, and the tested concentrations ranged from 5 µM and 500 nM. Table 1a (Comparative Compounds)

rats = assay: Rodent formalin pain model (Example 3); format: in vivo; conditions: rat; for Minimal Efficacious Dose of Compound in Formalin Model: IV, statistically significant difference vs vehicle at 0 - 2 min (p≤0.05); for Duration of Pain Behavior: first two minutes after formalin, vehicle 88.6
Description: Compounds of Formula (Ia) are active in rodent models of pain induced by direct activation of the TRPA1 channel with intraplantar injection of the TRPA1 agonist formalin. Compounds of Formula (Ia) were tested in the formalin-induced pain test reported by Abbott et. al. Pain. 1995 Jan;60(1):91-102. Dubuisson et al. describe a method for assessing pain and analgesia in rats. Briefly, dilute formalin (50 µL of 3 % formalin) is injected into the plantar surface of the hind paw. […] The individual responsible for counting the pain behaviors in a particular study is blinded to the treatment groups.
Table 2 is a data table showing the results from testing compounds of Formula (Ia) in the rodent formalin-induced pain model described in […]. Rats were treated with the compounds of Formula (Ia) at various doses (0.1, 0.3, 1, 1.2, 3, 4, 10, or 30 mg/Kg IV) or with a control composition containing the vehicle (i.e., without a compound of Formula (Ia)). Pain behaviors (flinch, lift, lick, bite) were monitored following intraplantar formalin injection. Referring to Table 2, the minimum effective dose was derived from dose resulting in statistically significant difference in behavior at 0 - 2 min time period as compared with vehicle (p≤0.05).

[1] = test system: Female Sprague Dawley rats; assay: Rodent acute tolerability test with liver function tests (Example 5); format: in vivo, rat; set-up: key to Alterations in LFT: (↔) indicates blood levels of markers for potential liver damage within normal range; (↑) indicates blood levels of markers for potential liver damage elevated above normal range; conditions: single IV bolus dose 100 mg/kg, about 24 hours post dose
Description: Compounds of Formula (Ia) were assessed for acute tolerability in a rodent model at dose levels ranging from 100 - 200 mg/kg based upon the minimum efficacious dose of each compound. Female Sprague Dawley rats were administered up to a 10 mL/kg dose volume of each compound in 0.9% saline at appropriate concentrations as an intravenous bolus via the lateral tail vein. The animals were observed immediately post dose and for up to twenty four hours post dose and clinical observations were recorded. Additionally, approximately twenty four hours post dose animals were euthanized and blood taken for serum chemistry analysis with a focus on liver function tests (LFTs). The maximum tolerated single dose and LFT results are summarized in Table 3, where (↔) indicates blood levels of markers for potential liver damage within normal range and (↑) indicates blood levels of markers for potential liver damage elevated above normal range. Referring to the data in Table 3, LFT blood levels of markers for potential liver damage remained within normal range for the compounds of Formula (Ia), while LFTs were elevated for Comparator Compounds including 5-10 fold elevation above normal for ALT and AST blood levels observed upon administration of Comparative Compound 1. […]

[2] = Aqueous solubility in buffered solutions, HPLC (Example 2); format: physicochemical; conditions: kinetic from dmso stock, ambient temperature
sheep = assay: Sheep model of experimental allergic asthma, Ascaris suum antigen challenge (Example 6); format: in vivo; conditions: for inhibition of the AHR / inhibition of the EAR / inhibition of the LAR: sheep; for Average Early Airway Response (EAR) / Average Late Airway Response (LAR) / Airway Hyperresponsiveness (AHR): 4 days; for Average Early Airway Response (EAR): average increase in RL 0-4h after challenge; for Average Late Airway Response (LAR): average increase in RL 5-8h after challenge; for Airway Hyperresponsiveness (AHR): ratio of post challenge PC400 to pre challenge PC400
Description: Compounds were tested in the sheep model of experimental asthma reported in Abraham WM, Asthma & Rhinitis, 2000: 1205-1227. All animals were tested for both early and late stage airway responses to inhalation challenge with Ascaris suum antigen.
The unsedated sheep were restrained in a cart in the prone position with their heads immobilized. After topical anesthesia of the nasal passages with 2% lidocaine solution, a balloon catheter was advanced through one nostril into the lower esophagus. The animals were intubated with a cuffed endotracheal tube through the other nostril. Pleural pressure was estimated with the esophageal balloon catheter. Lateral pressure in the trachea was measured with a sidehole catheter advanced through and positioned distal to the tip of the endotracheal tube. Transpulmonary pressure, the difference between tracheal and pleural pressure, was measured with a differential pressure transducer catheter system. For the measurement of pulmonary resistance (RL), the proximal end of the endotracheal tube was connected to a pneumotachograph. The signals of flow and transpulmonary pressure were recorded on an oscilloscope recorder, which was linked to a computer for on-line calculation of RL from transpulmonary pressure, respiratory volume (obtained by digital integration) and flow. Analysis of 5-10 breaths were used for the determination of RL in cm H2O / L x sec^-1.
Aerosols of Ascaris suum extract (diluted 20:1 with phosphate buffered saline; 82,000 PNU/ml) were generated using a disposable medical nebulizer (Raindrop^R, Puritan Bennett). The output from the nebulizer was directed into a plastic t-piece, one end of which was connected to the inspiratory port of a Harvard respirator. To better control aerosol delivery, a dosimeter consisting of a solenoid valve and a source of compressed air (20 psi) was activated at the beginning of the inspiratory cycle of the Harvard respirator system for 1 s. The aerosol was delivered at a tidal volume of 500 ml and a rate of 20 breaths per minute. Each sheep was challenged with an equivalent dose of antigen in the control and drug trials. Carbachol aerosols were also generated with this same nebulizer system.
For the carbachol concentration response curves, measurements of RL were repeated immediately after inhalation of buffer and after each administration of 10 breaths of increasing concentrations of carbachol solution (0.25%, 0.5%, 1.0%, 2.0% and 4.0% w/v). To assess airway responsiveness, the cumulative carbachol dose in breath units (BU) that increased RL 400% over the post-buffer value (i.e. PC 400) was calculated from the dose response curve. One breath unit was defined as one breath of a 1% w/v carbachol solution.
Compound 5-T was given at doses of 1, 3 and 10 mg/kg given orally once a day for 3 days and on day 4, 2 hours before antigen challenge. A group of sheep also received a vehicle control.
A pre-challenge (baseline) PC 400 was obtained 1-3 days before the start of dosing. Then on the day of antigen challenge, the sheep received the last dose of Compound 5-T 2h before antigen challenge. Values of lung resistance (RL) were measured at baseline, 1.5 h after drug treatment and, then, serially for 8h after challenge with Ascaris suum antigen. Measurements of RL were obtained 24 h after challenge followed by the 24 h post challenge determination of PC 400. Responses to antigen challenge with drug and/or vehicle treatment were compared to each animal's historical control.
Two groups of animals (n=3) were used for these studies. Group 1 received the vehicle control and the 1 mg/kg dose. Group 2 received the 3 mg/kg dose and the 10 mg/kg dose. A Repeated Measures Analysis of Variance was used to compare the responses within each group to their historical control. If a significant difference was found, then Tukey's post hoc test was used to determine pair wise differences. […]

[3] = sodium bicarbonate buffer in water for injection/5% dextrose, pH 9.0, 50 mM sodium bicarbonate, read-out: pH 9.0 aqueous solubility
[4] = sodium phosphate buffer in water for injection/5% dextrose, pH 7.4, 75 mM sodium phosphate, read-out: pH 7.4 aqueous solubility

Row | SMILES | IC50 (human TRPA1) [nM] | Minimal Efficacious Dose of Compound in Formalin Model (rats) [mg/kg] | Duration of Pain Behavior (rats; dose 0.3 mg/kg IV) [s] | Duration of Pain Behavior (rats; dose 1 mg/kg IV) [s] | Duration of Pain Behavior (rats; dose 3 mg/kg IV) [s] | Alterations in LFT [1] | LFT: % upper normal range ALT serum levels [1] [%/<100%] | LFT: % upper normal range AST serum levels [1] [%/<100%] | solubility kinetic at 24 h [2, 3] [µg/mL] | solubility kinetic at 24 h [2, 4] [µg/mL] | also measured
1 | C[C@@H](C(=O)N(COP(=O)(O)O)c1cncc(-c2cnc(N3CCCC3(C)C)nc2)n1)n1cnc2c1c(=O)n(C)c(=O)n2C [Compound 2-E, (S)-(2-(1,3-dimethyl-2,6-dioxo-1,2,3,6-tetrahydro-7H-purin-7-yl)-N-(6-(2-(2,2-dimethylpyrrolidin-1-yl)pyrimidin-5-yl)pyrazin-2-yl)propanamido)methyl dihydrogen phosphate] | > 100 | 3 | 80.4 | 77 | 15.1 | ↔ | <100 | <100 | > 1000 | > 1000 | –
2 | C[C@@H](C(=O)N(COP(=O)(O)O)c1cncc(-c2cnc(N3CCC[C@H]3C(F)(F)F)nc2)n1)n1cnc2c1c(=O)n(C)c(=O)n2C [Compound 5-S, ((S)-2-(1,3-dimethyl-2,6-dioxo-1,2,3,6-tetrahydro-7H-purin-7-yl)-N-(6-(2-((S)-2-(trifluoromethyl)pyrrolidin-1-yl)pyrimidin-5-yl)pyrazin-2-yl)propanamido)methyl dihydrogen phosphate] | > 100 | 3 | 69.8 | 52.3 | 8.4 | ↔ | <100 | <100 | > 1000 | > 1000 | Duration of Pain Behavior (rats; dose 10 mg/kg IV): 0 s
3 | C[C@@H](C(=O)Nc1cncc(-c2cnc(N3CCC[C@H]3C(F)(F)F)nc2)n1)n1cnc2c1c(=O)n(C)c(=O)n2C [Compound 5-T, (S)-2-(1,3-dimethyl-2,6-dioxo-1,2,3,6-tetrahydro-7H-purin-7-yl)-N-(6-(2-((S)-2-(trifluoromethyl)pyrrolidin-1-yl)pyrimidin-5-yl)pyrazin-2-yl)propanamide] | < 25 | – | – | – | – | – | – | – | 7 (≈ 12.9 µM) | 5 (≈ 9.18 µM) | inhibition of the AHR (sheep; 1 mg/Kg dose): 45%; inhibition of the EAR (sheep; 1 mg/Kg dose): no effect on EAR; inhibition of the LAR (sheep; 1 mg/Kg dose): 48%; Average Early Airway Response (EAR) (sheep; 1 mg/Kg orally once a day, Control 1 175 ± 25): 171 ± 17; Average Late Airway Response (LAR) (sheep; 1 mg/Kg orally once a day, Control 1 113 ± 4): 59 ± 1*^+; Airway Hyperresponsiveness (AHR) (sheep; 1 mg/Kg orally once a day, Control 1 0.49 ± 0.04): 0.71 ± 0.01*^+; inhibition of the AHR (sheep; 3 mg/Kg dose): 100%; inhibition of the EAR (sheep; 3 mg/Kg dose): 51%; inhibition of the LAR (sheep; 3 mg/Kg dose): 78%; Average Early Airway Response (EAR) (sheep; 3 mg/Kg orally once a day, Control 2 195 ± 15): 95 ± 6; Average Late Airway Response (LAR) (sheep; 3 mg/Kg orally once a day, Control 2 107 ± 5): 24 ± 1; Airway Hyperresponsiveness (AHR) (sheep; 3 mg/Kg orally once a day, Control 2 0.41 ± 0.01): 0.92 ± 0.08; inhibition of the AHR (sheep; 10 mg/Kg dose): 100%; inhibition of the EAR (sheep; 10 mg/Kg dose): 72%; inhibition of the LAR (sheep; 10 mg/Kg dose): 79%; Average Early Airway Response (EAR) (sheep; 10 mg/Kg orally once a day, Control 2 195 ± 15): 55 ± 2*^; Average Late Airway Response (LAR) (sheep; 10 mg/Kg orally once a day, Control 2 107 ± 5): 22 ± 3; Airway Hyperresponsiveness (AHR) (sheep; 10 mg/Kg orally once a day, Control 2 0.41 ± 0.01): 1.00 ± 0.14; inhibition of the average early airway response (EAR), compared to Comparative Compound 2 (sheep; at the doses tested): improved inhibition; inhibition of the average late airway response (LAR) and the airway hyperresponsiveness (AHR) (sheep; doses 1, 3 and 10 mg/kg orally): dose dependent inhibition
